# Source: patent US12486227B2, “Small molecules for cancer therapy that reduce the expression of transcription factors KLF5 and EGR-1” (University of Florida Research Foundation, Incorporated, priority 2019, dated 2025)
# Where two headings read alike, the source gives them in different places.
# Legend:
# human KLF5 promoter = assay: KLF5 promoter activity luciferase assay in DLD-1/pGL4.18hKLF5p cells; type: cell-based; conditions: for EC50: read-out: Approximate potency (EC50 · mol/L) (luciferase)
# Description: To examine the impact of these compounds on viability of CRC cell lines, we performed cell proliferation and cell growth assays using DLD-1 and HCT116 CRC cells. […] KLF5 promoter activity assay. DLD-1/pGL4.18hKLF5p cells were seeded in 96 well plate format and treated with DMSO or with test compounds dissolved in DMSO in the range of 0.001 to 20 μM final concentration for 24 h and the human KLF5 promoter activity was determined with the ONE-Glo luciferase assay system (Promega) using a SpectramMax M3 (Molecular Devices) plate reader. The IC50 values were calculated using GraphPad Prism version 5.00 for Windows (GraphPad Software) (22).
# DLD-1 colon cancer cells = assay: MTT viability assay, DLD-1; type: cell-based; conditions: Homo sapiens
# Source text: Specific Examples of compounds of the present disclosure have EC50 values estimated using a cell-based assay for binding to the KLF5 promoter and, in many cases, a follow-up viability assay (MTT) using DLD-1 colon cancer cells, a cell line known to highly express KLF5 and whose growth is adversely affected by the reduction of KLF5 levels. Assay protocols follow those described in the literature.^22,23 Other assays that are not described here but that are standard in the field may also be useful in establishing mechanism of action of these compounds.
# KLF5 = assay: Western blot of KLF5 protein levels in DLD-1 cells; type: cell-based, human; conditions: 1 μM and 10 μM, 24 h
# Description: In this experiment the test compounds were at 1 μM and 10 μM, and protein levels were measured after 24 h.
# (§1) Western blot analysis. Total protein was extracted from cells with Laemmli buffer and the analysis was performed as described previously (24).
# Cyclin D1, E, A2, and B1 = assay: Western blot of cyclin levels; type: cell-based, human; conditions: DLD-1 and HCT116, 1 μM or 10 μM, 72 h
# Source text: Cyclins and their appropriate cyclin-dependent kinases form a regulatory network that allow cells to progress through the cell cycle (39, 40). […] SR15006, or SR18662, as compared to vehicle-treated cells. Thus, we investigated if these changes are accompanied by differences in the expression levels of cyclins. We focused our attention on Cyclin D1, E, A2, and B1, as we have previously shown that ML264 has inhibitory effect on their levels (24). […] Additionally, in contrast to ML264 or SR15006, SR18862 induced apoptosis and cell death.
# as §1
# [1] = test system: DLD-1 and HCT116 CRC cells; assay: Cell cycle analysis by flow cytometry (propidium iodide); type: cell-based, human; conditions: 10 μM, over three days
# Description: SR18662 alters the cell cycle pattern of CRCs. […] We have also evaluated the impact of SR15006 and SR18662 on cell cycle progression. We treated DLD-1 and HCT116 CRC cells over the course of three days with vehicle or 1 μM or 10 μM of test compound and then analyzed cell cycle using flow cytometry.
# Cell proliferation, cell cycle and apoptosis assays. For cell proliferation experiments, cell cycle, and apoptosis determination, DLD-1 and HCT116 cells were treated with 1 or 10 μM of each compound or with vehicle (DMSO). The cells were collected at 24, 48, and 72 h post-treatment and analyzed as previously described (24). Each experiment was performed in triplicate.
# MAPK pathway = assay: Western blot of MAPK signaling pathway components; type: cell-based, human; conditions: DLD-1 and HCT116, 10 μM, 72 h
# Source text: SR18662 negatively regulates MAPK and WNT signaling pathway and cyclin levels. Myriad publications have shown that in both in vitro and in vivo contexts KLF5 is regulated by MAPK and WNT signaling pathways and that KLF5, in turn, has the ability to modulate the activity of these pathways (14, 18, 26-32). We have previously shown that treatment of CRCs with ML264 results in decreased activity of both the MAPK and WNT signaling pathways (24). Because SR15006 and SRI8662 are structurally related to ML264, we decided to investigate their ability to alter the expression levels of the components of these pathways. Thus, we treated DLD-1 and HCT116 CRCs with DMSO (vehicle) and tested compounds at 1 μM or 10 μM, collecting the cells for western blot analysis at 24, 48, and 72 h. […] Similar effects were seen when both cell lines were treated these compounds at 1 μM. Furthermore, the inhibitory effects of SR18662 on the components of the MAPK signaling pathway we observed at earlier time points than were apparent following treatment with ML264 or SR15006.
# as §1
# [2] = test system: HCT-116 colorectal cancer cell line; assay: MTT growth assay, HCT-116; type: cell-based; conditions: Homo sapiens, Table 1
# Source text: (§2) The observed activity is greater than that previously seen for ML264.
# [3] = test system: HT-29 colorectal cancer cell line; assay: MTT growth assay, HT-29; type: cell-based; conditions: Homo sapiens, Table 1
# Source text: as §2
# [4] = test system: DLD-1-derived tumor xenografts; conditions: once a day 25 mg/kg; cited from earlier work
# [5] = test system: SW-620 colorectal cancer cell line; assay: MTT growth assay, SW-620; type: cell-based; conditions: Homo sapiens, Table 1
# Source text: as §2
# [6] = Table 2, read-out: Approximate potency (EC50 · mol/L) (DLD1, MTT assay)
SMILES,"EC50 (human KLF5 promoter; Homo sapiens, DLD-1, Table 2)",EC50 (DLD-1 colon cancer cells; [6]),also measured
"CS(=O)(=O)NCC1CCN(C(=O)CNC(=O)/C=C/c2cccc(Cl)c2)C1 (centres unmarked) [Example 3, (E)-3-(3-chlorophenyl)-N-(2-(3-(methylsulfonamidomethyl)pyrrolidin-1-yl)-2-oxoethyl)acrylamide]",846 nM,,
"CS(=O)(=O)N1CCN(C(=O)CNC(=O)/C=C/c2ccc(C(F)(F)F)c(Cl)c2)CC1 [Example 16, (E)-3-(3-chloro-4-(trifluoromethyl)phenyl)-N-(2-(4-(methylsulfonyl)piperazin-1-yl)-2-oxoethyl)acrylamide]",,315 nM,Approximate potency (EC50 · mol/L) (luciferase) (human KLF5 promoter; Table 2): Not converged
"CS(=O)(=O)N1CCC(CNC(=O)CNC(=O)/C=C/c2cccc(Cl)c2)CC1 [Example 4, (E)-3-(3-chlorophenyl)-N-(2-(((1-(methylsulfonyl)piperidin-4-yl)methyl)amino)-2-oxoethyl)acrylamide]",,2730 nM,
"CS(=O)(=O)N1CCC(CNC(=O)CNC(=O)/C=C/c2cccc(Cl)c2)C1 (centres unmarked) [Example 5, (E)-3-(3-chlorophenyl)-N-(2-(((1-(methylsulfonyl)pyrrolidin-3-yl)methyl)amino)-2-oxoethyl)acrylamide]",,3.26 nM,
"CS(=O)(=O)N1CCN(C(=O)CNC(=O)/C=C/c2ccc3c(c2)OCO3)CC1 [Example 18, (E)-3-(benzo[d][1,3]dioxol-5-yl)-N-(2-(4-(methylsulfonyl)piperazin-1-yl)-2-oxoethyl)acrylamide]",20.1 nM,15.3 nM,
"O=C(/C=C/c1cccc(Cl)c1)NCC(=O)N1CCN(S(=O)(=O)C2CCCCC2)CC1 [Example 7, (E)-3-(3-chlorophenyl)-N-(2-(4-(cyclohexylsulfonyl)piperazin-1-yl)-2-oxoethyl)acrylamide]",1280 nM,347 nM,
"CS(=O)(=O)N1CCN(C(=O)CNC(=O)/C=C/c2ccc(OC(F)(F)F)c(Cl)c2)CC1 [Example 17, (E)-3-(3-chloro-4-(trifluoromethoxy)phenyl)-N-(2-(4-(methylsulfonyl)piperazin-1-yl)-2-oxoethyl)acrylamide]",7910 nM,1610 nM,
"CN(C(=O)CNC(=O)/C=C/c1cccc(Cl)c1)C1CCS(=O)(=O)CC1 [ML264, reference compound]",,,"KLF5 protein levels by Western blot (KLF5): significantly reduced; EC50 [2]: 34 nM; EC50 [3]: 295 nM; levels of cyclins (Cyclin D1, E, A2, and B1): significant reduction in the levels of tested cyclins; growth of CRC xenografts [4]: significantly reduced the growth; EC50 (DLD-1 colon cancer cells; MTT, Table 1, read-out: EC50 (nM) DLD-1): 13 nM; EC50 [5]: 412 nM; cell cycle distribution [1]: significant decrease in the number of cells in G0/G1 and an increase in cells in S- and G2/M phases; expression levels of MAPK pathway components (MAPK pathway): negatively regulated the expression levels of the components of the MAPK pathway"
"CS(=O)(=O)NCC1CCN(C(=O)CNC(=O)/C=C/c2cccc(Cl)c2)CC1 [Example 2, (E)-3-(3-chlorophenyl)-N-(2-(4-(methylsulfonamidomethyl)piperidin-1-yl)-2-oxoethyl)acrylamide]",1410 nM,140 nM,

# More lines, main results first:
"EC50 (human KLF5 promoter; Homo sapiens, DLD-1, Table 2)",EC50 (DLD-1 colon cancer cells; [6]),SMILES,also measured
87.8 nM,73.5 nM,"CS(=O)(=O)N1CCN(C(=O)CNC(=O)/C=C/c2cccc(Br)c2)CC1 [Example 12, (E)-3-(3-bromophenyl)-N-(2-(4-(methylsulfonyl)piperazin-1-yl)-2-oxoethyl)acrylamide]",
6.28 nM,3.63 nM,"Cc1ccc(/C=C/C(=O)NCC(=O)N2CCN(S(C)(=O)=O)CC2)cc1Cl [Example 15, (E)-3-(3-chloro-4-methylphenyl)-N-(2-(4-(methylsulfonyl)piperazin-1-yl)-2-oxoethyl)acrylamide]",
26.1 nM,25.3 nM,"CS(=O)(=O)N1CCN(C(=O)CNC(=O)/C=C/c2ccc(F)c(Cl)c2)CC1 [Example 11, (E)-3-(3-chloro-4-fluorophenyl)-N-(2-(4-(methylsulfonyl)piperazin-1-yl)-2-oxoethyl)acrylamide]",
108 nM,78.1 nM,"CS(=O)(=O)N1CCN(C(=O)CNC(=O)/C=C/c2cc(Cl)cc(Cl)c2)CC1 [Example 13, (E)-3-(3,5-dichlorophenyl)-N-(2-(4-(methylsulfonyl)piperazin-1-yl)-2-oxoethyl)acrylamide]",
1080 nM,,"CS(=O)(=O)N1CCCN(C(=O)CNC(=O)/C=C/c2cccc(Cl)c2)CC1 [Example 6, (E)-3-(3-chlorophenyl)-N-(2-(4-(methylsulfonyl)-1,4-diazepan-1-yl)-2-oxoethyl)acrylamide]",
46.1 nM,41 nM,"CS(=O)(=O)N1CCN(C(=O)CNC(=O)/C=C/c2ccc(F)c(F)c2)CC1 [Example 14, (E)-3-(3,4-difluorophenyl)-N-(2-(4-(methylsulfonyl)piperazin-1-yl)-2-oxoethyl)acrylamide]",
41.6 nM,16.3 nM,"CS(=O)(=O)N1CCN(C(=O)CNC(=O)/C=C/c2cccc(Cl)c2)CC1 [Example 1, (E)-3-(3-chlorophenyl)-N-(2-(4-(methylsulfonyl)piperazin-1-yl)-2-oxoethyl)acrylamide]","KLF5 protein levels by Western blot (KLF5): significantly reduced; levels of cyclins (Cyclin D1, E, A2, and B1): significant reduction in the levels of tested cyclins; IC50 (human KLF5 promoter; Homo sapiens, DLD-1, 24 h treatment, FIG. 1B, read-out: IC50, human KLF5 promoter activity): 41.6 nM; cell cycle distribution [1]: affected the cell cycle in the similar way as did ML264; expression levels of MAPK pathway components (MAPK pathway): negatively regulated the expression levels of the components of the MAPK pathway"
7050 nM,322 nM,"CC(C)CS(=O)(=O)N1CCN(C(=O)CNC(=O)/C=C/c2cccc(Cl)c2)CC1 [Example 8, (E)-3-(3-chlorophenyl)-N-(2-(4-(isobutylsulfonyl)piperazin-1-yl)-2-oxoethyl)acrylamide]",
170 nM,63.8 nM,"COc1ccc(/C=C/C(=O)NCC(=O)N2CCN(S(C)(=O)=O)CC2)cc1Cl [Example 10, (E)-3-(3-chloro-4-methoxyphenyl)-N-(2-(4-(methylsulfonyl)piperazin-1-yl)-2-oxoethyl)acrylamide]",
